# Values of other authors, collected in patent US20110251243A1, “Method and Kit for Assessing a Patient's Genetic Information, Lifestyle and Environment Conditions, and Providing a Tailored Therapeutic Regime” (priority 2005, published 2011).
# Like-named read-outs stand apart in the source and are kept apart here.
# Legend:
# smokers = conditions: women with at least one Taq1A allele compared to women with both common alleles
# [1] = in the majority of people
structure (smiles),measurement,setting,value
CCc1c2c(nc3ccc(OC(=O)N4CCC(N5CCCCC5)CC4)cc13)-c1cc3c(c(=O)n1C2)COC(=O)[C@]3(O)CC [Irinotecan],chance of neutropenia,patients; heterozygotes (6/7),12.5%
same,likelihood of neutropenia,patients; homozygous 7/7 genotype in UGT1A1*28,50%
same,fatality,patients; in vivo,up to 5%
same,"severe diarrhoea and neutropenia, share of patients",patients; in vivo,20-35%
same,chance of neutropenia,patients; wild type (homozygous 6/6 genotype),roughly 0%
CC(NC(C)(C)C)C(=O)c1cccc(Cl)c1 (stereo not shown) [bupropion],smoking status at 12 months,smokers,more likely to be still smoking
CN1CCCC1c1cccnc1 (stereo not shown) [nicotine],share metabolized to cotinine by C-oxidation,[1],70% to 80
